According to US7968720B2, “Secondary amines as renin inhibitors” (Actelion Pharmaceuticals Ltd., priority 2006, dated 2011):

Biological target: T1, recombinant human renin (Homo sapiens, UniProt P00797)
T1 sequence (P00797 67-406): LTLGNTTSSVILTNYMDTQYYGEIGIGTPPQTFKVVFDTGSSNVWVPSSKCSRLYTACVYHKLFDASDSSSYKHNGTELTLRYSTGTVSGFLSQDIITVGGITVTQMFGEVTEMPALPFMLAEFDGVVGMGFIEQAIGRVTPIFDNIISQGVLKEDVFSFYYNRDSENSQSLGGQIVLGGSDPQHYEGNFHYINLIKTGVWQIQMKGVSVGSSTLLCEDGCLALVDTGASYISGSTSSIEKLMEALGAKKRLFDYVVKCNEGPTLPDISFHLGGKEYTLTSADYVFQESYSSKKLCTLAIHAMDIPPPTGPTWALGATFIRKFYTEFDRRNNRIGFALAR
Assay: Primary renin inhibition assay: IC50 in buffer, 384 well MTP (AngI measured by EIA)
Assay type: biochemical
Conditions: human tetradecapeptide (1-14) substrate, incubated at 37° C. for 3 h, AngI quantified by EIA
Experimental: 1. Enzyme Immuno Assay (EIA) to Estimate AngI Accumulation and Renin Inhibition
1.1 Preparation of AngI-BSA Conjugate
1.3 mg (1 μmol) of AngI [1-10 (Bachem, H-1680)] and 17 mg (0.26 μmol) of BSA (Fluka, 05475) were dissolved in 4 mL of 0.1M phosphate buffer, pH 7.4, after which 2 mL of a 1:100 dilution of glutaraldehyde in H2O (Sigma G-5882) was added dropwise. The mixture was incubated overnight at 4° C., then dialyzed against 2 liters of 0.9% NaCl, twice for 4 h at rt, followed by dialysis against 2 liters of PBS 1× overnight at rt. The solution was then filtered with a Syringe filter, 0.45 μm (Nalgene, Cat. No. 194-2545). The conjugate can be stored in polypropylene tubes in 0.05% sodium azide at 4° C. for at least 12 months.
1.2 Preparation of BSA-AngI Coated MTP
Microtiter plates (MPT384, MaxiSorp™, Nunc) were incubated overnight at 4° C. with 80 μl of AngI (1-10)/BSA conjugate, diluted 1:100'000 in PBS 1× in a teflon beaker (exact dilution dependent on batch of conjugate), emptied, filled with 90 μl of blocking solution [0.5% BSA (Sigma A-2153) in PBS 1×, 0.02% NaN3], and incubated for at least 2 h at rt, or overnight at 4° C. 96 well MTP (MaxiSorp™, Nunc) were coated with 200 μl conjugate and blocked with 250 μl blocking solution as above, except that the blocking solution contained 3% BSA. The plates can be stored in blocking solution at 4° C. for 1 month.
1.3 AngI-EIA in 384 Well MTP
The AngI (1-10)/BSA coated MTP were washed 3 times with wash buffer (PBS 1×, 0.01% Tween 20) and filled with 75 μl of primary antibody solution (anti-AngI antiserum, pre-diluted 1:10 in horse serum), diluted to a final concentration of 1:100'000 in assay buffer (PBS 1×, 1 mM EDTA, 0.1% BSA, pH 7.4). 5 μl of the renin reaction (or standards in assay buffer) (see below) were added to the primary antibody solution and the plates were incubated overnight at 4° C. After the incubation the plates were washed 3 times with wash buffer and incubated with secondary antibody [anti-rabbit IgG, linked to horseradish peroxidase (Amersham Bioscience, NA 934V), diluted 1:2'000 in wash buffer] for 2 h at rt. The plates were washed 3 times with wash buffer and then incubated for 1 h at rt with substrate solution [1.89 mM ABTS (2,2′-azino-di-(3-ethyl-benzthiazolinsulfonate)] (Roche Diagnostics, 102 946) and 2.36 mM H2O2 [30%, (Fluka, 95300] in substrate buffer (0.1M sodium acetate, 0.05M sodium dihydrogen phosphate, pH 4.2). The OD of the plate was read at 405 nm in a microplate reader (FLUOStar Optima from BMG). The production of AngI during the renin reaction was quantified by comparing the OD of the sample with the OD of a standard curve of AngI(1-10), measured in parallel.
2. Primary Renin Inhibition Assay: IC50 in Buffer, 384 Well MTP
The renin assay was adapted from an assay described before (Fischli W. et al., Hypertension, 1991, 18:22-31) and consists of two steps: in the first step, recombinant human renin is incubated with its substrate (commercial human tetradecapeptide renin substrate) to create the product Angiotensin I (AngI). In the second step, the accumulated AngI is measured by an immunological assay (enzyme immuno assay, EIA). The detailed description of this assay is found below. The EIA is very sensitive and well suited for renin activity measurements in buffer or in plasma. Due to the low concentration of renin used in this assay (2 fmol per assay tube or 10 pM) it is possible to measure inhibitor affinities in this primary assay down to low pM concentration.
Recombinant human renin (3 pg/μl) in assay buffer (PBS 1×, 1 mM EDTA, 0.1% BSA, pH 7.4), human tetradecapeptide (1-14) substrate (Bachem, M-1120) [5 μM in 10 mM HCl], hydroxyquinoline sulfate (Fluka, 55100) [30 mM in H2O] and assay buffer were premixed at 4° C. at a ratio of 100:30:10:145. 47.5 μl per well of this premix was transferred into polypropylene plates (MTP384, Nunc). […]

SMILES | IC50
CNC(=O)CCc1ccc(Cl)c(CN(C(=O)[C@H]2CNCC[C@@H]2c2ccc(OCc3cc(-c4c(F)ccc(F)c4Cl)no3)cc2)C2CC2)c1 [Example 102, (3R,4S)-4-{4-[3-(2-Chloro-3,6-difluoro-phenyl)isoxazol-5-ylmethoxy]-phenyl}-piperidine-3-carboxylic Acid [2-chloro-5-(2-methylcarbamoyl-ethyl)benzyl]-cyclopropyl-amide] | 0.08 nM
CNC(=O)OCCc1ccc(Cl)c(CN(C(=O)[C@H]2CNCC[C@@H]2c2ccc(N3CC[C@@H](Oc4c(Cl)cc(C)cc4Cl)C3)nc2)C2CC2)c1 [Example 110, Methyl-carbamic Acid 2-{4-chloro-3-[(cyclopropyl-{(3′R,4′S)-6-[(R)-3-(2,6-dichloro-4-methyl-phenoxy)-pyrrolidin-1-yl]-1′,2′,3′,4′,5′,6′-hexahydro-[3,4′]bipyridinyl-3′-carbonyl}-amino)-methyl]-phenyl}-ethyl Ester] | 0.39 nM
